# In patent publication US12630509B2, “Heterocyclic NMDA antagonists” (TAKEDA PHARMACEUTICAL COMPANY LIMITED, priority 2019, dated 2026):
# Columns and labels:
# [1] = target: NMDA receptor composed of four subunits including two sets of heterodimers of NR1 and NR2B (GRIN1/GRIN2B) expressed in HEK 293 cells (Homo sapiens, UniProt Q13224); test: NR2B Ca2+ influx assay; type: cell-based; details: HEK293, final concentration 10 μM; glutamic acid and glycine induced Ca2+ influx, HEK 293 cells expressing human GRIN1 and GRIN2B; read-out: % inhibited(10 μM)
# Chain of NMDA receptor composed of four subunits including two sets of heterodimers of NR1 and NR2B (GRIN1/GRIN2B) expressed in HEK 293 cells (Q13224 27-1484, other chains not shown): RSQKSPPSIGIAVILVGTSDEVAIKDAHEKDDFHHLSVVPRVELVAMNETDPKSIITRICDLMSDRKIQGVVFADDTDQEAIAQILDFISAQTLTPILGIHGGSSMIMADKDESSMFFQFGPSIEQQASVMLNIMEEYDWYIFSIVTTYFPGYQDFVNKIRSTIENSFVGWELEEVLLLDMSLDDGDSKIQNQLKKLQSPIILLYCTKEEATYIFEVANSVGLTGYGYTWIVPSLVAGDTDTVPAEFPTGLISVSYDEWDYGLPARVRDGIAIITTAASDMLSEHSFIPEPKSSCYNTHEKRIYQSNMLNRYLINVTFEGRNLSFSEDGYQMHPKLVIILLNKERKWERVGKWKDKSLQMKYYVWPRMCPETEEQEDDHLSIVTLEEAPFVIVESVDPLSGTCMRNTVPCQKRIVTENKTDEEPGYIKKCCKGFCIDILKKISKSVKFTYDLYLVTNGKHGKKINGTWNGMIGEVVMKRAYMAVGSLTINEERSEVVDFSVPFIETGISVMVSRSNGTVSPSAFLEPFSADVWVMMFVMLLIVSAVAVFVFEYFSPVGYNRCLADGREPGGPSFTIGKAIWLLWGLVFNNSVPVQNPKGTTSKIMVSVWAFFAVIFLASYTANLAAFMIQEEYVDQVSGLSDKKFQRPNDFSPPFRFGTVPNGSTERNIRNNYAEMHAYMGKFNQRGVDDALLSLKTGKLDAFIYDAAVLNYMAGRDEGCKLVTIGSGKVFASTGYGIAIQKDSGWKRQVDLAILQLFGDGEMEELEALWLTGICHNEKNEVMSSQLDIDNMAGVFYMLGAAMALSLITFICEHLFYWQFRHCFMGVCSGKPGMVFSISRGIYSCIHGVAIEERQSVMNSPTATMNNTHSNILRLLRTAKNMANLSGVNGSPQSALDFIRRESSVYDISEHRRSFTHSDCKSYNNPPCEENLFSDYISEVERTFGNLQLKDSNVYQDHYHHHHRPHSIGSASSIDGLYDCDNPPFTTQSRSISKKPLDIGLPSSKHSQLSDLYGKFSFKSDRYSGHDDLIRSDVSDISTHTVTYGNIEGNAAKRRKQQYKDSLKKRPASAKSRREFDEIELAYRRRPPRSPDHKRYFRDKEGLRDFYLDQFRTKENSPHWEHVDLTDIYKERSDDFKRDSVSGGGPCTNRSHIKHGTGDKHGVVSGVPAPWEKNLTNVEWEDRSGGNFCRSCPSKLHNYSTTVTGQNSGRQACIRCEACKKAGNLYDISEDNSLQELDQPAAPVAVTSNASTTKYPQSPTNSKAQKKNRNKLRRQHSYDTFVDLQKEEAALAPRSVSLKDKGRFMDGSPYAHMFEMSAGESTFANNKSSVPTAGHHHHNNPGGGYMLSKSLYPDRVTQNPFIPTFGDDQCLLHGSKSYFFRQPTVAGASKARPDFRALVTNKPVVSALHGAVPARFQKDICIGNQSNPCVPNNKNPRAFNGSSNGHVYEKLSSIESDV
# Description: The HEK 293 cells that express GRIN1 and GRIN2B were purchased from ChanTest (human NMDA (NR1/NR2B) receptor-expressing, stable replicating cell line (HEK 293) catalog no. CT6121).
# Intracellular calcium-ion (Ca^2+) influx caused by glycine and glutamic acid respectively binding to NR1 and NR2B was used as an index of NMDA receptor activation.
# The HEK 293 cells expressing GRIN1 and GRIN2B were cultured in a cell culture flask in an incubator (37° C., in 5% CO2) using a DMEM/F-12 (Cosmo Bio, 10-092-CM) medium supplemented with 10% FBS (fetal bovine serum, AusGene), 100 units/mL penicillin, 100 μg/mL streptomycin, 500 μg/mL neomycin, 100 μg/mL Zeocin (registered trademark of Invitrogen), and 5 μg/mL blasticidin.
# On the day before the assay, the cells were detached from the flask by trypsinization, suspended in a seeding medium (DMEM (Invitrogen, 31053) supplemented with 10% FBS, 100 units/mL penicillin, and 100 μg/mL streptomycin) so as to be 8×10^5 cells/mL, seeded at 25 μL per well in a 384-well plate (Falcon, 356663) so as to be 20,000 cells/well, and cultured overnight using the incubator. On the day of the assay, tetracycline (Wako Pure Chemical, 209-16561) was diluted with the seeding medium at 2 μg/mL, and added at 25 μL/well to the plate into which the cells were seeded, and this was cultured for 2 hours in the incubator. Afterward, the medium was removed and washed with an assay buffer (137 mM NaCl, 4 mM KCl, 1.8 mM CaCl2), 10 mM HEPES (pH 7.2), 10 mM glucose, 0.1% BSA) at 50 μL/well. Next, a loading buffer (buffer wherein 2.5 μM Fluo-4 AM, 2 mM amaranth, and 1 mM tartrazine are added to the assay buffer) was added at 25 μL/well, and this was incubated in the incubator for 30 minutes and for 15 minutes at room temperature. Solutions wherein the Example compounds were diluted with the above-mentioned assay buffer so as to be 30 μM (final concentration 10 μM) were added at 25 μL/well, and these were left standing for 15 minutes at room temperature. Using FDSS7000EX/μCELL (Hamamatsu Photonics), an assay buffer including 30 μM glutamic acid and 30 μM glycine was added at 25 μL/well, and a fluorescence signal of an Excitation wavelength of 480 nm and an Emission wavelength of 540 nm was measured every 3 seconds for 5 minutes. The inhibitory activity was calculated as a relative activity value (inhibitory rate) wherein relative to an integrated value of florescence values of each well, an integrated value of fluorescence values of a well into which an assay buffer without glutamic acid and glycine was defined as 100% inhibition.
# [2] = test system: NMDA receptor containing the NR2B subunit; test: [3H]MK-801 binding test in vivo; parameters: species or system Sprague Dawley rats; details: [3H]MK-801 binding inhibitory rate in rat hippocampus, vehicle control 100%, excess MK-801 maleate 0%
# Description: In order to confirm that compounds of the present disclosure exert functional antagonistic action on an NMDA receptor containing the NR2B subunit in vivo, a binding test was performed using tritium-labeled form of MK-801 ((5R,10S)-5-methyl-10,11-dihydro-5H-5,10-epiminodibenzo[a,d][7]annulene) ([3H]MK-801), which is a compound capable of binding to the opening site of the NMDA receptor.
# The example compound (3 mg/kg/2 mL, 0.5% MC water) or vehicle (0.5% MC water 2 ml) was orally administered (p.o.) to Sprague Dawley rats (body weight 180-260 g). After a certain time (around after time-to maximum blood concentration), [3H]MK-801 (20 μCi/kg/mL, Muromachi Kikai) was intravenously administered. After 10 min, the rats were euthanized by decapitation, and subjected to craniotomy, and the hippocampus was collected. The collected hippocampus was homogenized in 30 volumes (30 mL per 1 g tissue) ice-cooled 20 mM HEPES (pH7.5, Hampton Research) using a homogenizer (T10 basic Ultra-Turrax) for 10 sec. […] The filter was washed four times with ice-cooled saline (5 mL, Otsuka Pharmaceutical), put into a scintillation vial, and then 10 mL of liquid scintillator A (FUJIFILM Wako Pure Chemical Corporation) was added thereto, and the residual radioactivity was counted using liquid scintillation counter (ALOKA LSC-6100).
# Separately, the residual radioactivity in 100 μL of the homogenate before the filtration was counted in the same way. The value of [the residual radioactivity in the filter/the residual radioactivity in the 100 μL of the homogenate] was calculated as a [3H]MK-801 binding rate to the NMDA receptor expressing in each individual hippocampus tissue. […] The difference between the percentage of [^3H]MK-801 binding rate in the group orally administered with the example compound and that in the vehicle control group (100%) was analyzed as [^3H]MK-801 binding inhibitory rate by the example compound.
# [3] = continuous intravenous administration; cited from earlier work
# [4] = rodents; cited from earlier work
# [5] = in vivo; cited from earlier work
# [6] = intravenous single administration; cited from earlier work
# [7] = in vivo; cited from earlier work; remark: listed apart in the source
Compound,inhibition at 10 µM [1],"Inhibitory Rate (3 mg/kg, p.o.) [2]",further results
"C[C@H]1COC(=O)N1Cc1cnc(Oc2ccc(Cl)cc2F)nc1 [Example 49, (4S)-3-{[2-(4-chloro-2-fluorophenoxy)pyrimidin-5-yl]methyl}-4-methyl-1,3-oxazolidin-2-one]",97%,19%,
"C[C@@H]([C@@H](O)c1ccc(O)cc1)N1CCC(O)(c2ccccc2)CC1 [CP-101,606]",,,treatment-resistant depression symptoms [3]: significantly improved; number of occurrences and depth of cortical spreading depression [4]: suppress the number of occurrences of and the depth of cortical spreading depression
"C[C@H]1CCC(=O)N1Cc1cnc(Oc2ccc(F)cc2F)nc1 [Example 45, (5S)-1-{[2-(2,4-difluorophenoxy)pyrimidine-5-yl]methyl}-5-methylpyrrolidine-2-one]",96%,13%,
"C[C@H]1[C@@H](O)CC(=O)N1Cc1ccc(Oc2ccc(C(F)F)cc2F)nc1 [Example 38, (4S,5S)-1-({6-[4-(difluoromethyl)-2-fluorophenoxy]pyridin-3-yl}methyl)-4-hydroxy-5-methylpyrrolidin-2-one]",95%,22%,
CC(C(O)c1ccc(O)cc1)N1CCC(Cc2ccccc2)CC1 (stereo not drawn) [Ifenprodil],,,pain threshold value [5]: increased
Ro25-6981,,,number of occurrences and depth of cortical spreading depression [4]: suppress the number of occurrences of and the depth of cortical spreading depression
CNC1(c2ccccc2Cl)CCCCC1=O (stereo not drawn) [ketamine],,,depression symptoms associated with major depression and bipolar disorder [6]: rapidly and continuously improves depression symptoms
CC12CC3CC(C)(C1)CC(N)(C3)C2 [memantine],,,peripheral symptoms of dementia [7]: partially ameliorated
